Test results taken from article PMC9169222, “Impedance-Based Phenotypic Readout of Transporter Function: A Case for Glutamate Transporters” (Frontiers in Pharmacology, 2022).
Entries after “also recorded” stand apart in the source; their conditions may differ. Counter-ions that a name gives are not always drawn.

Tests used:
[1] = tested on: JumpIn-EAAT1 cells; experiment: Targeted metabolomics (LC-MS/MS) of intracellular metabolite levels; assay type: cell-based, human; conditions: 1 mM substrate, 2 h
Method: JumpIn-EAAT1 cells were plated at 150,000 cells/well in 24 well poly-L-lysine coated plates in culture medium in the absence (−dox) or presence (+dox) of 1 μg/ml doxycycline and grown at 37°C and 5% CO2. After 24 h, the medium was refreshed and cells were pretreated with vehicle (PBS/DMSO) or 10 µM TFB-TBOA. […] For lysis, cells were first gently washed with room temperature bicarbonate buffer (91 mM NH4HCO3, pH 7.4). […] The cells were then scraped and transferred to a pre-cooled Eppendorf tube and immediately snap frozen in liquid nitrogen. Samples were thawed on ice before being centrifuged at 16,000 × g for 10 min at 4°C. The clarified metabolite-containing supernatants were moved into a high-performance liquid chromatography vial and stored at −80°C until LC-MS/MS analysis.
Cell extracts were dried using a nitrogen evaporator. The dry residue was reconstituted in 16 µl H2O and 4 µl of sample extract was used for LC-MS/MS analysis. […] The column was maintained at a temperature of 40°C and 4 µl of sample was injected per run. The mobile phase A was 3% MeOH (v/v), 10 mM tributylamine, 15 mM acetic acid in H2O, and mobile phase B was 10 mM tributylamine, 15 mM acetic acid in MeOH. The gradient elution with a flow rate 0.25 mL/min was performed for a total time of 24 min. […] The metabolites of interest were detected using a dynamic Multiple Reaction Monitoring (MRM) mode. The MassHunter 10.0 software (Agilent Technologies) was used for the data processing. Ten-point linear calibration curves with internal standardization were constructed for the quantification of metabolites.
Volcano plots were generated to visualize the significant up- or downregulation of intracellular metabolite concentrations. The log2 fold change upon substrate addition is plotted against the −log10 adjusted p-value.

[2] = molecular target: T1, EAAT1 (JumpIn-EAAT1 cells) (Homo sapiens, UniProt P43003); experiment: Impedance-based phenotypic assay (xCELLigence) on JumpIn-EAAT1 cells; assay type: cell-based; conditions: net AUC 0–120 min
T1 construct: expressed in transfected cells; host or cells: Jump In T-REx HEK 293
Method: In short, cells are cultured in medium on gold-plated electrodes in microwell E-plates.
Assays were performed at 37°C and 5% CO2 in 96-well PET E-plates in a total volume of 100 µl per well. Prior to cell seeding, the baseline impedance (Z0) was measured in the recording station in 40 µl (two compound additions) or 45 µl (one compound addition) medium in the presence (+) or absence (−) of 1 μg/ml dox. All compounds were diluted in phosphate-buffered saline (PBS) and added in 5 µl per addition using a VIAFLO 96 handheld electronic 96 channel pipette (INTEGRA Biosciences, Tokyo, Japan). When DMSO was used as a solvent for a compound, the final amount of DMSO was kept at 0.1% per well and was included in the vehicle (PBS/DMSO). All conditions were tested at two technical replicates per plate.
Transiently transfected JumpIn-EAAT1 cells were detached using only PBS/EDTA. The E-plate was left to rest at room temperature for 30 min prior to replacement in the recording station at 37°C and 5% CO2. Cell growth was recorded overnight for 22 h. If a pretreatment was required for the experiment, the cells were pretreated after 22 h with either a concentration of inhibitor or vehicle (PBS/DMSO) and cells were monitored for 60 min. For GPCR antagonist experiments, a maximum concentration of LY341495 (1 µM) was used. […] After the pretreatment, cells were stimulated with substrate or vehicle (PBS). […] After stimulation the impedance was measured for at least 2 h. […] Properly washed plates were re-used up to two times.
Experimental data was recorded using RTCA Software v2.0 or v2.1.1 (ACEA Biosciences). In the RTCA Software CI values were normalized to the time point prior to substrate/agonist stimulation resulting in normalized Cell Index (nCI) values. The nCI data were exported and subsequent analyses and data visualizations were done using GraphPad Prism v9 (GraphPad Software, San Diego, CA, United States). In all experiments, nCI values of vehicle-only conditions were subtracted from all other conditions to correct for vehicle-induced, substrate-independent effects. […] The potency values of substrates and inhibitory potencies of EAAT inhibitors were determined by fitting the net AUC data to a sigmoidal concentration-effect curve with a variable slope.

T1 sequence (P43003 whole entry): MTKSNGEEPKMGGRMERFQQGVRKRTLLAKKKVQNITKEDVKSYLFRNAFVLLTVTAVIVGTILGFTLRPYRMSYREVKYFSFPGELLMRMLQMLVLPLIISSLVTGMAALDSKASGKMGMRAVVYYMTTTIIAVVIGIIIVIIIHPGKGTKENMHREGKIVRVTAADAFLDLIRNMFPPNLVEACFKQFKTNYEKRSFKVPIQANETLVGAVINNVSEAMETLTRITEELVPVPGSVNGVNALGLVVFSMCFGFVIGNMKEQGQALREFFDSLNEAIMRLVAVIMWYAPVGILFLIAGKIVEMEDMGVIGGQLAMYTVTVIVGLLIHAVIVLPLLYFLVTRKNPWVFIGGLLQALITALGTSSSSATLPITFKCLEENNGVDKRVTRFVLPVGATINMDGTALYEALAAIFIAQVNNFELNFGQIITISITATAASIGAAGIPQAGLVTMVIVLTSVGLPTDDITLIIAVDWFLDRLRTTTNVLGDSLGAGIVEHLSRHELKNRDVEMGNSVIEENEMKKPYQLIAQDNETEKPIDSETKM

Compound: N[C@@H](CCC(=O)O)C(=O)O [L-glutamate, L-glutamic acid monosodium salt monohydrate]
- Intracellular cAMP levels [1]: significant elevations
- Intracellular glutamine level [1]: not significantly altered
- Levels of TCA cycle intermediates and related metabolites [1]: increased
- Increase of intracellular aspartate ([1]; +dox): 5 fold
- Increase of intracellular glutamate ([1]; +dox): 5 fold
- Intracellular taurine level ([1]; +dox): significantly reduced; also recorded: significant decrease
- Substrate pEC50 ± SEM ([2]; JumpIn-EAAT1, +dox): 3.4 ± 0.0
- EC50 ([2]; JumpIn-EAAT1, −dox, read-out: Substrate pEC50 ± SEM (converted)): 63.1 µM
